Laboratory results: US20040142882A1, “Use of glycyrrhizin and its derivatives as RANTES inducers” (priority 2002, published 2004)

What was measured:
HIV [1] = settings: reported in recent years; cited from earlier work
[2] = system: peripheral mononuclear cells; assay: RANTES induction in peripheral mononuclear cells from healthy individuals (Quantikine immunoassay of culture supernatant); type: cell-based, human
Procedure: Peripheral blood was collected from healthy individuals and peripheral mononuclear cells were isolated with Ficoll-Hypaque. RPMI1640 medium containing 10% FCS and antibiotics (penicillin and streptomycin) was used for culturing. After stimulating 1×10^6 cells/ml of peripheral mononuclear cells with 100 μg/ml of sodium olean-3β-hydroxy-11-oxo-12-ene-30-ate, disodium olean-9(11),12-diene-3β,30-diol-3β,30-O-dihemiphthalate, disodium olean-11,13 (18)-diene-3β,30-diol-3β,30-O-dihemiphthalate, disodium olean-3β-hydroxy-11,13(18)-diene-30-ate-3β-O-hemiphthalate, disodium olean-3β-hydroxy-11-oxo-12-ene-30-ate-3β-O-hemiphthalate, or monoammonium glycyrrhizinate for 24 hours, the amount of RANTES in the culture supernatant was measured with a Human RANTES/CCL5 Quantikine Immunoassay Kit (R&D Systems). Furthermore, the control in the drawing indicates the amount of RANTES in culture supernatant when peripheral mononuclear cells were treated with medium only.
Peripheral blood was collected from healthy subjects and peripheral mononuclear cells were isolated with Ficoll-Hypaque. 1×10^6 cells/ml of peripheral mononuclear cells were stimulated with 100 μg/ml of monoammonium glycyrrhizinate (monoammonium glycyrrhizinate will hereinafter be referred to as glycyrrhizin). Taking the time at which glycyrrhizin was added to be 0 hours, the amount of RANTES present in the culture supernatant was measured with the Human RANTES/CCL5 Quantikine Immunoassay Kit (R&D Systems) 12, 24, 48 and 72 hours later. Furthermore, the control in the drawing indicates the amount of RANTES in culture supernatant of peripheral mononuclear cells not treated with glycyrrhizin.
Peripheral blood was collected from healthy subjects and peripheral mononuclear cells were isolated with Ficoll-Hypaque. 1×10^6 cells/ml of peripheral mononuclear cells were stimulated for 24 hours with 0.1-100 μg/ml of glycyrrhizin. The amount of RANTES present in the culture supernatant was measured with the Human RANTES/CCL5 Quantikine Immunoassay Kit (R&D Systems).

[3] = system: methicillin-resistant Staphylococcus aureus (MRSA); assay: MRSA infection in SCIDbgMN mice inoculated with spleen mononuclear cells of IFN-γ knockout mice, survival; type: in vivo; settings: 10 days
Procedure: Spleen mononuclear cells originated from IFN-γ knockout mice (5×10^6 cells/ml) were inoculated into SCIDbgMN mice (SCID-beige mice deficient in macrophage and neutrophil functions). A 20 mg/kg dose of glycyrrhizin was administered intraperitoneally immediately after inoculation. 2 hours later, the animals were infected through the tail vein with methicillin-resistant Staphylococcus aureus (MRSA) at a level of 5 LD50. Furthermore, a control group was infected with an equal amount of MRSA following administration of physiological saline.
Spleen mononuclear cells originated from IFN-γ knockout mice (5×10^6 cells/ml) were inoculated into SCIDbgMN mice. A 20 mg/kg dose of glycyrrhizin was administered intraperitoneally immediately after inoculation. 2 hours later, the animals were infected through the tail vein with methicillin-resistant Staphylococcus aureus (MRSA) at a level of 5 LD50. 10 μg/ml of anti-RANTES monoclonal antibody was administered subcutaneously 2 hours before, 12 hours after and 24 hours after administration of glycyrrhizin, while an equal amount of Ig was administered subcutaneously to a control group.

IL-12Rβ2 mRNA = assay: Th1 cell induction: IL-12Rβ2 mRNA expression by RT-PCR in peripheral mononuclear cells; type: cell-based, human; settings: 7 days, FIG. 5
Procedure: Peripheral blood was collected from healthy subjects and peripheral mononuclear cells were isolated with Ficoll-Hypaque. 1×10^6 cells/ml of peripheral mononuclear cells were cultured for 7 days in medium containing IL-2 (10 U/ml) and anti-IFN-γ monoclonal antibody (10 μg/ml) in the presence of 100 μg/ml of glycyrrhizin, or glycyrrhizin and anti-RANTES monoclonal antibody (10 μg/ml). After culturing, RNA was extracted from the cells, and the expression of IL-12Rβ2 mRNA, a marker for Th1 cells, was measured by RT-PCR. […] In other words, IFN-γ is not involved in the reaction used in this experiment. Furthermore, the control in the drawing indicates the degree of expression of IL-12Rβ2 mRNA in mononuclear cells when cultured without the addition of glycyrrhizin.

[4] = system: septicemia induced by cecal ligation and puncture (CLP); assay: Septicemia model (cecal ligation and puncture) in IFN-γ knockout mice, survival; type: in vivo; settings: 7 days
Procedure: Glycyrrhizin was administered intraperitoneally to IFN-γ knockout mice at 20 mg/kg, and septicemia was induced by cecal ligation and puncture (CLP) 2 hours later.
Glycyrrhizin was administered intraperitoneally to IFN-γ knockout mice at 20 mg/kg, and septicemia was induced by CLP 2 hours later. 10 μg/ml of anti-RANTES monoclonal antibody were administered subcutaneously 2 hours before, 12 hours after and 24 hours after administration of glycyrrhizin, while an equal amount of Ig was administered subcutaneously to a control group.

HIV [5] = settings: 150 to 225 mg (6 to 9 tablets) per day, asymptomatic carriers (AC); cited from earlier work
[6] = system: mononuclear cells originated from mouse spleen; assay: RANTES induction in mononuclear cells originated from mouse spleen; type: cell-based
Text: The above results were able to be confirmed not only in humans, but also in experiments using mononuclear cells originated from mouse spleen.

[7] = system: peripheral mononuclear cells from AIDS patients; assay: RANTES induction in peripheral mononuclear cells from AIDS patients; type: cell-based, human; settings: 100 μg/ml, 24 hours, cells from 3 AIDS patients, FIG. 4
Procedure: Peripheral blood was collected from 3 AIDS patients (CD4 count: 215-418 cells/μl, viral load: 80,000-370,000 copies/ml) and peripheral mononuclear cells were isolated with Ficoll-Hypaque. 1×10^6 cells/ml of peripheral mononuclear cells were stimulated for 24 hours with 100 μg/ml of glycyrrhizin. The amount of RANTES present in the culture supernatant was measured with the Human RANTES/CCL5 Quantikine Immunoassay Kit (R&D Systems). Furthermore, the control in the drawing indicates the amount of RANTES in culture supernatant of peripheral mononuclear cells not treated with glycyrrhizin.

SMILES	intracellular growth of HIV (HIV [1])	amount of RANTES in the culture supernatant ([2]; 100 μg/ml compound, 24 hours, 1×10^6 cells/ml, FIG. 1) [ng/mL]	production of RANTES over time ([2]; 100 μg/ml, 12, 24, 48 and 72 hours, FIG. 2)	RANTES induction versus concentration ([2]; 0.1-100 μg/ml tested, 24 hours, dose dependent within 1-100 μg/ml, FIG. 3)	mortality rate after MRSA infection with anti-RANTES monoclonal antibody ([3]; 20 mg/kg i.p. plus anti-RANTES monoclonal antibody subcutaneously, FIG. 9)	survival rate after MRSA infection ([3]; 20 mg/kg intraperitoneally 2 hours before MRSA 5 LD50 via tail vein, FIG. 8) [%]	expression of IL-12Rβ2 mRNA (Th1 marker) with anti-RANTES monoclonal antibody (IL-12Rβ2 mRNA; 100 μg/ml glycyrrhizin plus anti-RANTES monoclonal antibody 10 μg/ml)	expression of IL-12Rβ2 mRNA (Th1 marker) (IL-12Rβ2 mRNA; 100 μg/ml, with IL-2 and anti-IFN-γ monoclonal antibody)	mortality rate after septicemic infection with anti-RANTES monoclonal antibody ([4]; 20 mg/kg i.p. plus anti-RANTES monoclonal antibody subcutaneously, FIG. 7)	survival rate after septicemic infection ([4]; 20 mg/kg intraperitoneally 2 hours before CLP, FIG. 6) [%]	survival without the onset of AIDS (HIV [5]) [years]	RANTES induction confirmed in mouse cells [6]	RANTES induction [7]	amount of RANTES induced compared with monoammonium glycyrrhizinate ([2]; 100 μg/ml compound, 24 hours, FIG. 1)
CC1(C)[C@@H](O[C@H]2O[C@H](C(=O)O)[C@@H](O)[C@H](O)[C@H]2O[C@@H]2O[C@H](C(=O)O)[C@@H](O)[C@H](O)[C@H]2O)CC[C@]2(C)[C@H]3C(=O)C=C4[C@@H]5C[C@@](C)(C(=O)O)CC[C@]5(C)CC[C@@]4(C)[C@]3(C)CC[C@@H]12.N [GR, monoammonium glycyrrhizinate]	inhibits the intracellular growth of HIV	3	increased with the passage of culturing time	dose dependent manner	increased to the same level as the control group	75	no longer demonstrated its expression	increase in the expression of IL-12Rβ2 mRNA	increased to the same level as the control group	80	≥ 10	confirmed	RANTES was induced	
CC1(COC(=O)c2ccccc2C(=O)[O-])CCC2(C)CCC3(C)C(=C2C1)C=CC1C2(C)CCC(OC(=O)c4ccccc4C(=O)[O-])C(C)(C)C2CCC13C.[Na+].[Na+] (stereo not drawn) [MUN-014, disodium olean-11,13(18)-diene-3β,30-diol-3β,30-O-dihemiphthalate]														nearly equal amount
